Results published in patent US20090041876A1, “OIL/FAT-CONTAINING COMPOSITION FOR SUPPRESSION OF CARCINOGENESIS” (KANEKA CORPORATION, priority 2005, published 2009).
Structures can show the parent of a compound that is named as a salt. Marks after values point to notes of the source that are not given here.

Legend:
[1] = liver medium-term bioassay (Ito test): liver weights, general status, light and electron microscopical examination of livers; assay type: in vivo, rat; settings: F344 male rats, DEN +, 500 ppm with feed (positive control)
Description: Diethylnitrosamine (DEN) was administered intraperitoneally to the rats once at a dose of 200 mg/kg for the purpose of an initiation treatment for liver carcinogenesis, and from two weeks after the administration, a test substance, i.e., the MCT solution was forcibly administered orally at doses of 0 (control group), 150, 300, and 600 mg/kg once a day seven times/week for six weeks (Groups 1 to 4). The doses of the MCT solution used in this test (150, 300, and 600 mg/kg) correspond to 45, 90, and 180 mg/kg body weight in terms of a licorice extract serving as an effective ingredient. In addition, phenobarbital sodium salt (S. PB) was administered with a feed to a positive control group at a concentration of 500 ppm (Group 5). […]
(§1) After a lapse of the third week of the experiment (one week after the start of test substance administration), partial hepatectomy was performed for all the animals, and lesions in the livers were amplified. […] The areas of the liver sections and the numbers and areas of GST-P-positive cell foci with diameters of 0.2 mm or more were measured using a pathological specimen image analyzer IPAP-WIN (Sumika Technoservice Corporation), and then the areas and numbers per cm^2 of the liver sections were calculated to perform a quantitative analysis. […]

GST-P-positive cell foci = assay: liver medium-term bioassay (Ito test): quantitative analysis of GST-P-positive cell foci in rat liver; assay type: in vivo
Description: In order to examine the effect of the MCT solution of Example 1 on carcinogenesis, a search using a liver medium-term bioassay (Ito test) was performed. This test method is one of the two-step carcinogenesis models using rodents and is employed for rat liver. This test method has been used to search for 313 or more chemical substances, and is considered to be a reliable and useful method of searching for carcinogens or carcinogenesis-suppressing substances. Therefore, this test is accepted as an alternative to a conventional long-term carcinogenicity test in the Japan/US/EU Trilateral International Conference on Harmonization of Technical Requirements for Registration of Pharmaceuticals for Human Use (ICH). […]
as §1

SMILES: CCC1(c2ccccc2)C(=O)NC(=O)NC1=O [Phenobarbital Sodium, phenobarbital sodium salt]
- Liver weight, Absolute weight [1]: 9.2781 ± 0.4913 g
- Liver weight, Relative weight [1]: 3.3527 ± 0.1032 %
- number and area per unit area of GST-P-positive cell foci versus control (GST-P-positive cell foci; Group 5, DEN +, 500 ppm with feed): evidently high levels
- GST-P-positive cell foci, Area (GST-P-positive cell foci; rat liver, DEN +, 500 ppm with feed (positive control)): 0.541 ± 0.160** mm^2/cm^2
